Test results taken from US9040713B2, “Methods of managing blood sugar levels and compositions related thereto” (EMORY UNIVERSITY, priority 2010, dated 2015).

Legend:
IGF-IR = target: T1, IGF-IR (Mus musculus, UniProt Q60751); assay: IGF-IR activation in mouse muscle and liver; type: in vivo; conditions: C57BL/6J mice, 20 mg/kg oral
T1 construct: from tissue; host or cells: muscle and liver of C57BL/6J mice

GST-IRTK = target: T2, GST-IRTK (Homo sapiens, UniProt P06213); assay: UV-absorption spectra titration; type: binding
T2 construct: GST-tagged IRTK (GST-IRTK, a.a. 1011-1382); purchased Invitrogen
T2 sequence (P06213 1011-1382): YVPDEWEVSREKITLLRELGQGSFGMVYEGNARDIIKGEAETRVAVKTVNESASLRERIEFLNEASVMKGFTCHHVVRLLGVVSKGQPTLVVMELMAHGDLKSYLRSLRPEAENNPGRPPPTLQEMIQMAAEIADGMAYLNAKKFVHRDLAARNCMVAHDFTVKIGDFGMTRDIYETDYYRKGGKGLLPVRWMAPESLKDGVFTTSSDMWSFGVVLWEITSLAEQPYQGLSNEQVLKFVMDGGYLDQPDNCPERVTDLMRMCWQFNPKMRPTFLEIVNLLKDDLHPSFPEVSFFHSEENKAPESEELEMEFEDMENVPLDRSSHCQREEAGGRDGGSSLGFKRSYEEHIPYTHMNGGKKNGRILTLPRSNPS
Protocol: UV-Vis absorption for protein binding was obtained using the Cary 300 UV-Visible spectrophotometer (Varian Inc., Palo Alto, Calif.) equipped with 1.0 cm quartz cells. The spectra were scanned from 200 to 800 nm in Tris buffer (0.01M Tris, 0.05M NaCl, 10 mM MgCl2, pH 7.8). During the spectrophotometric titrations, protein (GST or GST-IRTK) was added to a cell containing a constant amount of compound. The absorbances at 602 nm were recorded (data were read for three times and mean value was obtain by averaging) and the obtained data were processed with KaleidaGraph (Synergy Software). Repeated measurements were done for all the samples and no significant differences were observed (The reproducibility errors is less than 5%). Binding results from the UV titration experiments were fit with a one site interaction model: r=K*Cfree/(1+K*Cfree) Where r represents the moles of bound compound per mole of protein, K is macroscopic binding constants, and Cfree is the free compound concentration in equilibrium with the complex. Insulin Competition Assay
Several small molecules bind to the intracellular kinase domain of IR (IRTK) and provoke its activation. DDN might also interact with the IRTK to activate IR. To test this possibility, an UV-absorption spectra analysis was performed using recombinant IRTK. […]

IR [1] = target: T3, IR (Homo sapiens, UniProt P06213); assay: Cell-based ELISA of IR tyrosine phosphorylation in CHO-IR cells; design: expressed in transfected cells; host or cells: CHO (CHO-IR, gift from Dr. Nicholas Webster, UCSD)
Protocol: A cell-based screening assay was developed with Chinese hamster ovary cells stably transfected with IR (CHO-IR) by using an ELISA to determine the IR tyrosine phosphorylation. […] Other 1,4-Napthoquinones that are structurally related to 4524-E7 were evaluated.
CHO-IR cells were seeded in a 96-well plate at 15,000 cells per well in […] of 0.1% FBS medium with 0.1% FBS. […] Cells were lysed, and phosphorylated receptors were captured with pY20 immobilized on ELISA plates. Bound receptors were washed, then detected using an anti-IR beta antibody, followed by an horseradish peroxidase-conjugated secondary antibody and colorimetric detection with 3,3′,5,5′-tetramethylbenzidine.
A cell-based ELISA assay was developed with an IR stably transfected Chinese Hamster Ovary (CHO-IR) cell line. […] The cell lysates were subjected to the sandwich ELISA using immobilized anti-phosphotyrosine antibody and anti-IR antibody.
Target sequence in this assay (P06213 763-1382 limits assumed): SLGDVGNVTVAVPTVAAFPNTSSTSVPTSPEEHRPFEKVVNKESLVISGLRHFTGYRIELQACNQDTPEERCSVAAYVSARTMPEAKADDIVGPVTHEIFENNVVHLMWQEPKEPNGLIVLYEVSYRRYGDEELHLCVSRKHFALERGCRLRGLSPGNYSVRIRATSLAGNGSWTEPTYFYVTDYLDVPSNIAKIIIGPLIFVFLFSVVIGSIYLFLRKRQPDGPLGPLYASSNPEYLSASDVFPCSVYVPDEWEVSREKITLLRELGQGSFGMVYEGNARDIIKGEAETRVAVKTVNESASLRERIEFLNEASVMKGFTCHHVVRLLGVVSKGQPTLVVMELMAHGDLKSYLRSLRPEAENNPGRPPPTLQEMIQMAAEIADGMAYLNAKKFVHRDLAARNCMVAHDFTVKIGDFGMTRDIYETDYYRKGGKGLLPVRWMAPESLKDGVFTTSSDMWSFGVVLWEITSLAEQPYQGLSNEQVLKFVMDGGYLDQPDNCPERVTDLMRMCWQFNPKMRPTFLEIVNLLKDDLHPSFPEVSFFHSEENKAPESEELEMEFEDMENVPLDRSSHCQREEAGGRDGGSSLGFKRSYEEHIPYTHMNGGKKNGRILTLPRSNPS
Target sequence in this assay (P06213 28-758 limits assumed): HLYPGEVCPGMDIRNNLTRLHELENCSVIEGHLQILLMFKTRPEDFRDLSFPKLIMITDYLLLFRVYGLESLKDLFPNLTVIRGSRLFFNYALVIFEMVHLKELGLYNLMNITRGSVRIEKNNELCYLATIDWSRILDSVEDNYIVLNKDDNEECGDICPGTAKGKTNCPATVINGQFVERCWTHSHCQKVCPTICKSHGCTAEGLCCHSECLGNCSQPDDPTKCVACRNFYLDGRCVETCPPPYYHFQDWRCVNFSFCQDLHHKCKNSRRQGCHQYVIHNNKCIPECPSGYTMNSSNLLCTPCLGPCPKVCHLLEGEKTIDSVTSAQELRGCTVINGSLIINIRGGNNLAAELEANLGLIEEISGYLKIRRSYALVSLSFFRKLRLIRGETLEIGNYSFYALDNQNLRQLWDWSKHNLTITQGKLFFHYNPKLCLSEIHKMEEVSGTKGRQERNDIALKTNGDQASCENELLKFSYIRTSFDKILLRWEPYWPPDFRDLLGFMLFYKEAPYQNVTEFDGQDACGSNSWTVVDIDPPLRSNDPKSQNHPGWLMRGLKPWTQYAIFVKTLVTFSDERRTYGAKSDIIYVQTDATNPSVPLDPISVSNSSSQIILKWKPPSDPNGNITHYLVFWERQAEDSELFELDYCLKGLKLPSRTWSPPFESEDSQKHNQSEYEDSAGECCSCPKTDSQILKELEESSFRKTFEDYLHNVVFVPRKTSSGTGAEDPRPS

[2] = system: EGFR, ErbB2, EphAl, FGFR1, VEGFR1, cMet, TrkB, PDGFRa, RET; assay: RTK kinase profile screen assay; type: biochemical
MCF7 cells = assay: Proliferation of MCF7 cells; type: cell-based
IR [3] = target: T3, IR; assay: IR phosphorylation in transfected HEK293 cells (Western blot); type: cell-based; design: expressed in transfected cells; host or cells: HEK293; conditions: 4524-E7 5 μM, insulin 100 nM
Target sequence in this assay (P06213 28-1382): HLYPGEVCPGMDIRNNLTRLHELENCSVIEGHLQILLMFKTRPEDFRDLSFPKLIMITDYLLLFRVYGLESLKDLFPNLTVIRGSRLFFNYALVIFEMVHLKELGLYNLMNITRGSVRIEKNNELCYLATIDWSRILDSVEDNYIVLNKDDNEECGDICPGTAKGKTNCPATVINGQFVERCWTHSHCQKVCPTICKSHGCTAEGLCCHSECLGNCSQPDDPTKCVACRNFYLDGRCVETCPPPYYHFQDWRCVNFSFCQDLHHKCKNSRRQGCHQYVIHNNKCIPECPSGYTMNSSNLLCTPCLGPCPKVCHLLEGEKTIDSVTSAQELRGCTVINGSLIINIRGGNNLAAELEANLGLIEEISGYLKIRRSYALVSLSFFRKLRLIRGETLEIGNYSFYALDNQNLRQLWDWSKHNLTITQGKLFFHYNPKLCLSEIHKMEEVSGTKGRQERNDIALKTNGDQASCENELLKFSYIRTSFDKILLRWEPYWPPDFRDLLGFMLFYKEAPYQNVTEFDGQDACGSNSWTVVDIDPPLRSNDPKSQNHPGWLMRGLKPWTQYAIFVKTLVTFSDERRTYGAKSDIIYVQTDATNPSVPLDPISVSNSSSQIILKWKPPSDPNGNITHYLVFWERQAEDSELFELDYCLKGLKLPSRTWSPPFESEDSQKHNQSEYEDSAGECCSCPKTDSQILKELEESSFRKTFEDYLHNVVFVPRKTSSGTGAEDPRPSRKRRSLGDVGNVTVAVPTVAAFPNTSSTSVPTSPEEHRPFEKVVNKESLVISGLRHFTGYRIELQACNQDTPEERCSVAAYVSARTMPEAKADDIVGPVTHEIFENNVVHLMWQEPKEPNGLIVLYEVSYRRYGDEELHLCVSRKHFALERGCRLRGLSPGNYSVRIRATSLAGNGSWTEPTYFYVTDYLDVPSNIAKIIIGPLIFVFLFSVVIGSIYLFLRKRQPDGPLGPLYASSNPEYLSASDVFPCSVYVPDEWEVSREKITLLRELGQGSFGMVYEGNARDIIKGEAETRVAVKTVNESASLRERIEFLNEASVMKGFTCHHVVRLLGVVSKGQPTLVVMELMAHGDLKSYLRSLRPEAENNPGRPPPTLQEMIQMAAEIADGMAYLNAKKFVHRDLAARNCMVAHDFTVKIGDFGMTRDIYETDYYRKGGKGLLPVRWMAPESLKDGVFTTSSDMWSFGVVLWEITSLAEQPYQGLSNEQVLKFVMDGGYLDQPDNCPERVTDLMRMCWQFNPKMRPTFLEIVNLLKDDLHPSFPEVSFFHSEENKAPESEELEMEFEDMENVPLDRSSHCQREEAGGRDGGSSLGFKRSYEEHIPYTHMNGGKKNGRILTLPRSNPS
Protocol: Cells were lysed, and IR phosphorylations were tested by ELISA. The IR phosphorylation activities of the tested compounds were expressed as a percentage of the vehicle. […] The cell lysates were analyzed by immunoblotting with various indicated antibodies. The phosphorylated IR was immunoprecipitated using PY20 and analyzed by immunoblotting with anti-IR13 antibody. […] The phosphorylation of each receptor was determined by Western blot using specific antibodies as indicated. […] Then the cells were lysated and the transfected receptor fused to His tag were pulled down with Ni+ beads, followed by western blot against anti-p-Tyr and anti-His. The cell lysates were tested with anti-p-Akt and anti-Akt.
Whether 4524-E7 can activate other receptors of RTK family was tested. […] To further explore the specificity, several hybrid recombinant RTKs were generated by replacing IGFR and EGFR's extracellular domain (ECD) with IR's ECD. Moreover, IGFR's intracellular domain (ICD) was substituted with IR's ICD, and the His-tagged receptors were transfected into CHO cells and treated with 4524-E7 for 30 min.

TrkB = target: T4, TrkB (Homo sapiens, UniProt Q16620); assay: TrkB phosphorylation in transfected HEK293 cells (Western blot); type: cell-based; conditions: 5 μM
T4 construct: expressed in transfected cells; host or cells: HEK293
T4 sequence (Q16620 32-822, species assumed): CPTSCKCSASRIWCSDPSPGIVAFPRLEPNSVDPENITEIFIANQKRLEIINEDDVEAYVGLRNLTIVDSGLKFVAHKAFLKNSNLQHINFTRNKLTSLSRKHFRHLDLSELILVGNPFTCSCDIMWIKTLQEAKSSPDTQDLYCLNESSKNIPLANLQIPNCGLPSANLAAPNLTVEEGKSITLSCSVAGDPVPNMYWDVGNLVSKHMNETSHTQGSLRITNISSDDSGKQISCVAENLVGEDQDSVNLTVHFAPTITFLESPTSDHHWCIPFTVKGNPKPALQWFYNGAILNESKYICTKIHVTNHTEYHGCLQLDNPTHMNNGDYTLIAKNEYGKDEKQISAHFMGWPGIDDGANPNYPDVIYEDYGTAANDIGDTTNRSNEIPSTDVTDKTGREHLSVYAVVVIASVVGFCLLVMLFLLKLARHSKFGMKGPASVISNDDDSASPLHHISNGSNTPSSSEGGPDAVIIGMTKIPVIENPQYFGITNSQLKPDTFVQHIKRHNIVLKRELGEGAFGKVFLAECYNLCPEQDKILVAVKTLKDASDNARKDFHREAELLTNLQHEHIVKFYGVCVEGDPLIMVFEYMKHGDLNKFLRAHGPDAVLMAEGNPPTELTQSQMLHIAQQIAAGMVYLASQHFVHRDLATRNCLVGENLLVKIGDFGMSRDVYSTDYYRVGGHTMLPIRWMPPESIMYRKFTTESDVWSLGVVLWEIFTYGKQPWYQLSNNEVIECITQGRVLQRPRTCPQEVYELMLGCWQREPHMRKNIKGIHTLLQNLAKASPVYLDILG

C57B5L/6J mice = assay: Hyperinsulinemic-euglycemic clamp; type: in vivo, mouse; conditions: 5 mg/kg oral 1 h before clamp
Protocol: (A) 4524-E7 provokes IR phosphorylation in various tissues of mice. Three-month-old C57BL/6J mice were starved for 12 h and then dosed with vehicle (0.5% methylcellulose) or 4524-E7 (20 mg/kg). Cell lysates from liver, muscle, and WAT were prepared at 3, 4, and 5 h after drug administration and analyzed by immunoblotting. (B) Basal and insulin-stimulated hepatic glucose production rates were measured by hyperinsulinemic-euglycemic clamp. […] (C) Hypoglycemic effect of 4524-E7 in C57BL/6J mice. C57BL/6J mice were starved for 12 h and then orally administrated with vehicle (0.5% methylcellulose) or 4524-E7 (5 mg/kg). Blood glucose was monitored at different time points as indicated (n=8, *: P<0.05, two-way ANOVA). (D) Hypoglycemic effect in db/db mice. db/db mice were starved for 12 h and then orally injected with vehicle (0.5% methylcellulose) or 4524-E7 (5 mg/kg). Blood glucose was monitored at different time points as indicated (n=5, *: P<0.05, two-way ANOVA). (E) Glucose tolerance test in ob/ob mice. The mice were starved for 12 hours and then orally administrated with vehicle or 4524-E7 (5 mg/kg). A bonus of glucose (2 gm/kg) was injected intraperitoneally 1 hour later. Blood glucose was then measured at 30 min intervals (n=13, *: P<0.05; **: P<0.01, two-way ANOVA).
C57B5L/6J mice were fasted for 12 h. […] In vivo hepatic glucose output was then determined by hyperinsulinemic-euglycemic clamp.

FGFR1 = FGFR1 (Homo sapiens, UniProt P11362); assay: RTK kinase profile screen assay; type: biochemical; conditions: 10 μM
FGFR1, sequence (P11362 22-822, species assumed): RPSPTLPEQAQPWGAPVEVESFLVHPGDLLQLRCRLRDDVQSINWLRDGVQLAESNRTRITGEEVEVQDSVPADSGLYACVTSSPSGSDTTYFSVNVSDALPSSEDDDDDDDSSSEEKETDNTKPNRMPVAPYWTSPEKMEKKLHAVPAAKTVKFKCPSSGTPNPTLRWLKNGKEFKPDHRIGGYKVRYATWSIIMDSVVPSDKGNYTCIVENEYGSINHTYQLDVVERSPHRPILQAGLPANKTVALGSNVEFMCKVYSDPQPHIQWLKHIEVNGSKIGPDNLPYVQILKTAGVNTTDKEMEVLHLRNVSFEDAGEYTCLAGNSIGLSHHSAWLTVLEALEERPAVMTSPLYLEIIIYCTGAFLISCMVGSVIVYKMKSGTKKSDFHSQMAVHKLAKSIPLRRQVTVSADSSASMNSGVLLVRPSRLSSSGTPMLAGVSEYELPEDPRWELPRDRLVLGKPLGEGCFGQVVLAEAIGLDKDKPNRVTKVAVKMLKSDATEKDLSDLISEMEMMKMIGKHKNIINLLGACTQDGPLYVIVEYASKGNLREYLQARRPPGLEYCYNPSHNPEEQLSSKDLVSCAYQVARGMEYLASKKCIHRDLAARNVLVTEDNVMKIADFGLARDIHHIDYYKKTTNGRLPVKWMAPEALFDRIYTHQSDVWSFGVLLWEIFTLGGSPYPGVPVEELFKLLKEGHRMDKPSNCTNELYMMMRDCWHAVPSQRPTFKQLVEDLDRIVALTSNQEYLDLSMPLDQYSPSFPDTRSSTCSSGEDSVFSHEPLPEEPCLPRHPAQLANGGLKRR

Row | IGF-IR activation in muscle or liver (IGF-IR) | Kd (GST-IRTK; UV titration, absorbance at 602 nm, read-out: binding constant Kd) [µM] | IR phosphorylation (IR [1]; 5 μM, 15 min, CHO-IR cells, ELISA) | concentration at which IR activation peaked (IR [1]; 15 min, dose-response) [µM] | concentration at which IR activation started (IR [1]; 15 min, dose-response) [µM] | time at which IR activation is triggered (IR [1]; 4524-E7 5 μM or insulin 50 nM) [min] | time at which IR activation peaked (IR [1]; 4524-E7 5 μM or insulin 50 nM) [min] | activation of tested RTKs [2] | IR activation (IR [3]) | TrkB activation (TrkB) | inhibition of FGFR1 (FGFR1) | SMILES | peak absorption at 560 and 602 nm in presence of GST-IRTK (GST-IRTK; spectra 200 to 800 nm) | proliferation of MCF7 cells (MCF7 cells) | insulin-stimulated suppression of hepatic glucose output (C57B5L/6J mice)
1 | did not stimulate IGF-IR activation | ~3.27 |  |  |  |  |  |  |  |  |  | CC(=O)Oc1ccc(OC(C)=O)c2c1C(=O)C(Cl)=C(Cl)C2=O [DDN, 5,8-diacetyloxy-2,3-dichloro-1,4-naphthoquinone] | enhanced the peak absorption at 560 and 602 nm |  | 
2 |  |  | about 250 % of basal level | 10 | 2.5 | 5 | 30 | none of the tested RTKs | selectively activated | not any other RTKs | slightly inhibited | O=C1c2ccccc2C(=O)C2SC(Nc3ccc(Cl)cc3)=NC12 (centres unmarked) [4524-E7, 2-((4-chlorophenyl)amino)naphtho[2,3-d]thiazole-4,9(3aH,9aH)-dione] |  | not able to induce the proliferation of MCF7 cells | potentiated the insulin actions in suppressing hepatic glucose output
